In patent publication US8231888B2, “Isoxazolines for controlling invertebrate pests” (priority 2005, dated 2012):

Columns and labels:
[1] = test system: diamondback moth (Plutella xylostella); assay: Test A: control of diamondback moth on radish plant, foliar spray; format: in vivo; details: 6 days, 25° C.
Description: For evaluating control of diamondback moth (Plutella xylostella) the test unit consisted of a small open container with a 12-14-day-old radish plant inside. This was pre-infested with about 50 neonate larvae that were dispensed into the test unit via corn cob grits using a bazooka inoculator. The larvae moved onto the test plant after being dispensed into the test unit.
(§1) Test compounds were formulated using a solution containing 10% acetone, 90% water and 300 ppm X-77™ Spreader Lo-Foam Formula non-ionic surfactant containing alkylarylpolyoxyethylene, free fatty acids, glycols and isopropanol (Loveland Industries, Inc. Greeley, Colo., USA). The formulated compounds were applied in 1 mL of liquid through a SUJ2 atomizer nozzle with 1/8 JJ custom body (Spraying Systems Co. Wheaton, Ill., USA) positioned 1.27 cm (0.5 inches) above the top of each test unit. All experimental compounds in these tests were sprayed at 250 and/or 50 ppm, and the test was replicated three times. After spraying of the formulated test compound, each test unit was allowed to dry for 1 h and then a black, screened cap was placed on top. The test units were held for 6 days in a growth chamber at 25° C. and 70% relative humidity. Plant feeding damage was then visually assessed based on foliage consumed and a pest mortality rating was also counted and calculated for each test unit.

[2] = test system: fall armyworm (Spodoptera frugiperda); assay: Test B: control of fall armyworm on corn (maize) plant, foliar spray; format: in vivo
Experimental: as §1
For evaluating control of fall armyworm (Spodoptera frugiperda) the test unit consisted of a small open container with a 4-5-day-old corn (maize) plant inside. This was pre-infested (using a core sampler) with 10-15 1-day-old larvae on a piece of insect diet. Test compounds were formulated and sprayed at 250 and/or 50 ppm as described for Test A and replicated three times. After spraying, the test units were maintained in a growth chamber and then the control efficacy was rated for each test unit as described for Test A.

[3] = sprayed at 250 and/or 50 ppm, no asterisk (not limited to 250 ppm)
[4] = asterisk: observed only at 250 ppm

SMILES | control efficacy (20% or less feeding damage or 80% or more mortality) [1, 3] | control efficacy (20% or less feeding damage or 80% or more mortality) [2, 3] | control efficacy (20% or less feeding damage or 80% or more mortality) [2, 4] | control efficacy (20% or less feeding damage or 80% or more mortality) [1, 4]
CC(NC(=O)c1ccc(C2=NOC(c3cc(Cl)cc(Cl)c3)(C(F)(F)F)C2)c2ccccc12)c1ccc2ccccc2c1 (mixture of isomers) [Compound 27] | very good to excellent levels of control efficacy | – | – | –
CC(NC(=O)c1ccc(C2=NOC(c3cc(Cl)cc(Cl)c3)(C(F)(F)F)C2)c2ccccc12)c1ccc([N+](=O)[O-])cc1 (mixture of isomers) [Compound 28] | very good to excellent levels of control efficacy | very good to excellent levels of control efficacy | – | –
COC(=O)C(NC(=O)c1ccc(C2=NOC(c3cc(Cl)cc(Cl)c3)(C(F)(F)F)C2)c2ccccc12)c1ccccc1 (mixture of isomers) [Compound 29] | very good to excellent levels of control efficacy | very good to excellent levels of control efficacy | – | –
CC(NC(=O)c1ccc(C2=NOC(c3cc(Cl)cc(Cl)c3)(C(F)(F)F)C2)c2ccccc12)c1ccc(Cl)cc1 (mixture of isomers) [Compound 30] | very good to excellent levels of control efficacy | very good to excellent levels of control efficacy | – | –
CC(NC(=O)c1ccc(C2=NOC(c3cc(Cl)cc(Cl)c3)(C(F)(F)F)C2)c2ccccc12)c1ccc(F)cc1 (mixture of isomers) [Compound 31] | very good to excellent levels of control efficacy | very good to excellent levels of control efficacy | – | –
O=C(NCc1cccnc1)c1ccc(C2=NOC(c3cc(Cl)cc(Cl)c3)(C(F)(F)F)C2)c2ccccc12 (centres unmarked) [Compound 6] | very good to excellent levels of control efficacy | very good to excellent levels of control efficacy | – | –
O=C(NCc1ccncc1)c1ccc(C2=NOC(c3cc(Cl)cc(Cl)c3)(C(F)(F)F)C2)c2ccccc12 (centres unmarked) [Compound 7] | very good to excellent levels of control efficacy | very good to excellent levels of control efficacy | – | –
CCN(C)C(=O)c1ccc(C2=NOC(c3cc(Cl)cc(Cl)c3)(C(F)(F)F)C2)c2ccccc12 (centres unmarked) [Compound 9] | very good to excellent levels of control efficacy | very good to excellent levels of control efficacy | – | –
CNC(=O)c1ccc(C2=NOC(c3cc(Cl)cc(Cl)c3)(C(F)(F)F)C2)c2ccccc12 (centres unmarked) [Compound 12] | very good to excellent levels of control efficacy | very good to excellent levels of control efficacy | – | –
Cc1cc(C)cc(C2(C(F)(F)F)CC(c3ccc(C(=O)NCc4ccccn4)c4ccccc34)=NO2)c1 (centres unmarked) [Compound 22] | very good to excellent levels of control efficacy | very good to excellent levels of control efficacy | – | –
O=C(NCc1ccccn1)c1ccc(C2=NOC(c3ccc(Cl)c(Cl)c3)(C(F)(F)F)C2)c2ccccc12 (centres unmarked) [Compound 23] | very good to excellent levels of control efficacy | very good to excellent levels of control efficacy | – | –
O=C(NCc1ccccn1)c1ccc(C2=NOC(c3cccc(Cl)c3)(C(F)(F)F)C2)c2ccccc12 (centres unmarked) [Compound 25] | – | very good to excellent levels of control efficacy | – | –
NC(=O)c1ccc(C2=NOC(c3cc(Cl)cc(Cl)c3)(C(F)(F)F)C2)c2ccccc12 (centres unmarked) [Compound 36] | very good to excellent levels of control efficacy | very good to excellent levels of control efficacy | – | –
O=C(N[C@H]1CCCc2ccccc21)c1ccc(C2=NOC(c3cc(Cl)cc(Cl)c3)(C(F)(F)F)C2)c2ccccc12 (some centres unmarked) [Compound 38] | very good to excellent levels of control efficacy | – | – | –
O=C(O)CNC(=O)c1ccc(C2=NOC(c3cc(Cl)cc(Cl)c3)(C(F)(F)F)C2)c2ccccc12 (centres unmarked) [Compound 43] | very good to excellent levels of control efficacy | – | – | –
NCCCCCCNC(=O)c1ccc(C2=NOC(c3cc(Cl)cc(Cl)c3)(C(F)(F)F)C2)c2ccccc12 (centres unmarked) [Compound 50] | very good to excellent levels of control efficacy | – | – | –
O=C(NCc1ccccn1)c1ccc(C2=NOC(c3cc(Cl)cc(Cl)c3)(C(F)(F)F)C2)c2cccnc12 (centres unmarked) [Compound 103, 5-[5-(3,5-dichlorophenyl)-4,5-dihydro-5-(trifluoromethyl)-3-isoxazolyl]-N-(2-pyridinylmethyl)-8-quinolinecarboxamide] | very good to excellent levels of control efficacy | very good to excellent levels of control efficacy | – | –
O=C(NCc1ccccn1)c1ccc(C2=NOC(c3cc(Cl)cc(Cl)c3)(C(F)(F)F)C2)c2cnccc12 (centres unmarked) [Compound 105] | very good to excellent levels of control efficacy | – | – | –
O=C(NCc1ccccn1)c1ccc(C2=NOC(c3cc(Cl)cc(Cl)c3)(C(F)(F)F)C2)c2ncccc12 (centres unmarked) [Compound 106] | very good to excellent levels of control efficacy | – | very good to excellent levels of control efficacy | –
O=C(NCC(F)(F)F)c1ccc(C2=NOC(c3cc(Cl)cc(Cl)c3)(C(F)(F)F)C2)c2ncccc12 (centres unmarked) [Compound 107] | – | – | very good to excellent levels of control efficacy | very good to excellent levels of control efficacy
FC(F)(F)C1(c2cc(Cl)cc(Cl)c2)CC(c2ccc(C(=S)NCc3ccccn3)c3cccnc23)=NO1 (centres unmarked) [Compound 108] | – | – | – | very good to excellent levels of control efficacy
FC(F)(F)CNC(=S)c1ccc(C2=NOC(c3cc(Cl)cc(Cl)c3)(C(F)(F)F)C2)c2ncccc12 (centres unmarked) [Compound 109] | – | – | – | very good to excellent levels of control efficacy
O=C(NCC(F)(F)F)c1ccc(C2=NOC(c3ccnc(Cl)c3)(C(F)(F)F)C2)c2ccccc12 (centres unmarked) [Compound 201] | very good to excellent levels of control efficacy | very good to excellent levels of control efficacy | – | –
